Target: T1, Adenosine receptor A1 (Rattus norvegicus, UniProt P25099)
T1 sequence (P25099 whole entry): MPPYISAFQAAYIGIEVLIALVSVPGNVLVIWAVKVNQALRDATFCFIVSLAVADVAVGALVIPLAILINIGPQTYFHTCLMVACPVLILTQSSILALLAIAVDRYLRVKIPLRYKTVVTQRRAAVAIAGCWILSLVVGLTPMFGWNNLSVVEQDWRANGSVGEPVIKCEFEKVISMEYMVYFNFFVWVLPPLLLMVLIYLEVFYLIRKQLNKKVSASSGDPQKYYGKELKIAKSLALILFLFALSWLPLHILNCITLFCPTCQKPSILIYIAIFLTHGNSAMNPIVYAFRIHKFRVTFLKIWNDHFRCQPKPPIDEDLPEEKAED
Assay: Binding affinity against adenosine A1 receptor in rat brain membrane using N6-[3H]cyclohexyladenosine

`CC(Sc1nc(SC(C)C(N)=O)c2cnn(-c3ccccc3)c2n1)C(N)=O` (stereo unspecified) [2-[6-(1-Carbamoyl-ethylsulfanyl)-1-phenyl-1H-pyrazolo[3,4-d]pyrimidin-4-ylsulfanyl]-propionamide] showed a Ki of 370 nM.

— BindingDB's records for doi:10.1021/jm00384a016 (1987)
